Results: the supplement of paper PMC8882468

What was measured:
Experiment in all cases: CTG-3D luminescence at 96 h relative to day-0 seeding control (ratio to day 0); higher = more growth / less cytotoxicity; PDxO 3D drug screen, 96 h, CTG-3D normalised to day-0 seeding control.
[1] = tested on: HCI-002 (organoid from a triple-negative breast cancer xenograft)
[2] = tested on: HCI-025 (organoid from a breast cancer xenograft)
[3] = tested on: HCI-015 (organoid from a triple-negative breast cancer xenograft)

C[C@]12CC[C@@H]3c4ccc(O)cc4C[C@@H](CCCCCCCCC[S+]([O-])CCCC(F)(F)C(F)(F)F)[C@H]3[C@@H]1CC[C@@H]2O (stereo partly drawn) [fulvestrant]
CTG-3D luminescence at 96 h
Conditions | 12.5 pM | 0.00025 µM | 0.005 µM | 0.1 µM | 1 µM | 10 µM | 100 µM | 625 fM
[1], days in culture: 62 | – | – | – | – | – | 3.11 | 2.61 | 2.86
[1], days in culture: 82 | – | – | – | – | – | 2.61 | 2.5 | 2.6
[1], days in culture: 91 | – | – | – | – | – | 3.39 | 2.65 | 3.54
[1], days in culture: 191 | – | – | – | – | – | 2.54 | 2.67 | 2.7
[1], days in culture: 209 | – | – | – | – | 2.28 | 1.83 | 2.35 | 2.47
[1], days in culture: 227 | – | – | – | – | 4.77 | 5 | 4.58 | 5.27
[2], days in culture: 172 | 3.02 | 1.74 | 3.7 | 1.97 | 1.97 | 1.21 | 2.24 | 2.87
[2], days in culture: 209 | 1.87 | 1.6 | 2.26 | 1.66 | 1.8 | 1.4 | 1.23 | 1.44
[2], days in culture: 218 | 1.47 | 1.8 | 1.97 | 1.54 | 1.5 | 1.93 | 1.21 | 1.28
[3], days in culture: 172 | 2.41 | 1.73 | 2.32 | 0.904 | 2.25 | 1.34 | 1.39 | 3.06
[3], days in culture: 191 | 1.78 | 1.35 | 1.29 | 1.06 | 1.56 | 1.23 | 1.35 | 1.56
[3], days in culture: 218 | 2.19 | 1.3 | 2.13 | 1.72 | 1.77 | 2.1 | 1.76 | 2.24
